Measurements: patent publication US11014917B2, “5-fluoro-c-(aryl or heterocyclyl)-glycoside derivatives useful as dual SGLT1 / SGLT2 modulators” (Janssen Pharmaceutica NV, priority 2017, dated 2021)

What was measured:
human SGLT2 = molecular target: T1, human SGLT2 (Homo sapiens, UniProt P31639); test: SGLT2 assay: Na-dependent 14C-AMG uptake in CHO-K1 cells stably expressing human SGLT2; assay type: cell-based; conditions: for IC50: average if tested more than once
T1 construct: expressed in transfected cells
T1 sequence (P31639 1-672): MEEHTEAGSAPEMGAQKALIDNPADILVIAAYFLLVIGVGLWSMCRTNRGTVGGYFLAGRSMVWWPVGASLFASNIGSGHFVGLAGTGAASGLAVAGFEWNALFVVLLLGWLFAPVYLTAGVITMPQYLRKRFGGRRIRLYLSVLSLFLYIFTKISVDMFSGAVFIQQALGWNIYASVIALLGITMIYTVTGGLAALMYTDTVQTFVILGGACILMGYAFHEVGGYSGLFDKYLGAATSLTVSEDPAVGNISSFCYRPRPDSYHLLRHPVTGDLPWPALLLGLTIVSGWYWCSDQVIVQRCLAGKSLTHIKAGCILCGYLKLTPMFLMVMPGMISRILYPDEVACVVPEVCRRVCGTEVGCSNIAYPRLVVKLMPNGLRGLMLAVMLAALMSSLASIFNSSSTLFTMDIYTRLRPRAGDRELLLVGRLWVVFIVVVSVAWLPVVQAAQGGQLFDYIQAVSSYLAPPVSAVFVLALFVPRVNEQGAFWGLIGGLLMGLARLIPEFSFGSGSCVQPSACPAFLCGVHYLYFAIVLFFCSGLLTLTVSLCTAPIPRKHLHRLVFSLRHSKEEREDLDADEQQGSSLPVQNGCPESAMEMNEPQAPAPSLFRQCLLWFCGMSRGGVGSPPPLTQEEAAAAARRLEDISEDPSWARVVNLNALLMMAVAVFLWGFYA
How it was run: (§1)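 Stable CHO-K1 lines were pretreated 24 h with 10 mM Na-butyrate, then compound (0.001–10 μM) for 10 min in Na+ buffer (137 mM NaCl, pH 7.4). Uptake of 14C-AMG (500 μM final, 0.07 μCi/well) over 2 h at 37° C measured by scintillation; %-inhibition or IC50.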

human SGLT1 = molecular target: T2, human SGLT1 (Homo sapiens, UniProt P13866); test: SGLT1 assay: Na-dependent 14C-AMG uptake in CHO-K1 cells stably expressing human SGLT1; assay type: cell-based; conditions: for IC50: average if tested more than once
T2 construct: expressed in transfected cells
T2 sequence (P13866 1-664): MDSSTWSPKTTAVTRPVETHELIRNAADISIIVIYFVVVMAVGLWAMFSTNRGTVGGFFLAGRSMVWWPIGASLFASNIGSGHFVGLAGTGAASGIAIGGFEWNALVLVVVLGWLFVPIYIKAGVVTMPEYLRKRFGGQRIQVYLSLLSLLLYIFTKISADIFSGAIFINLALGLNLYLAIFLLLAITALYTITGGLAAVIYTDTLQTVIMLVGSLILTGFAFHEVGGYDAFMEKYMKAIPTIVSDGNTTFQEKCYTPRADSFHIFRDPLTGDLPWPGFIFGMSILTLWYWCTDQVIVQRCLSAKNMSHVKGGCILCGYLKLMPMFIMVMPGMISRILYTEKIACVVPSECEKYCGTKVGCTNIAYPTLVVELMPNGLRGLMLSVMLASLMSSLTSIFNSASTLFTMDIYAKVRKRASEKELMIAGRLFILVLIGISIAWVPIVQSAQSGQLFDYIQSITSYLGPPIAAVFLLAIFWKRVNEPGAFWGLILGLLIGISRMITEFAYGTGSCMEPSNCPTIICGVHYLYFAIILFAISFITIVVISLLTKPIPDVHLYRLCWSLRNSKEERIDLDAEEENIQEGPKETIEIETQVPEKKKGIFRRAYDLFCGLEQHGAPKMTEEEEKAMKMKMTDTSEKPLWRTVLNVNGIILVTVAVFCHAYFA
How it was run: as §1

SGLT2 %-inhibition (human SGLT2; @ 0.3 μM) [% @ 0.3 μM]	SGLT1 %-inhibition (human SGLT1; @ 0.3 μM) [% @ 0.3 μM]	IC50 (human SGLT2) [nM]	IC50 (human SGLT1) [nM]	Structure (SMILES)	other results
				COc1c(Cc2ccc3c(c2)CCCO3)cc([C@@H]2O[C@H](CO)[C@@H](F)[C@H](O)[C@H]2O)c2c1CCO2 [Compound 126, (2S,3R,4R,5S,6R)-2-(5-(chroman-6-ylmethyl)-4-methoxy-2,3-dihydrobenzofuran-7-yl)-5-fluoro-6-(hydroxymethyl)-tetrahydro-2H-pyran-3,4-diol]	inhibition at 0.3 µM (human SGLT2; @ 0.3 μM): 16.8%; inhibition at 0.3 µM (human SGLT1; @ 0.3 μM): 21.7%
78.4	63.2			OC[C@H]1O[C@@H](c2cc(Cc3ccc4c(c3)SCCO4)c(Cl)c3c2OCC3)[C@H](O)[C@@H](O)[C@@H]1F [Compound 127]	
		62	187	COc1c(Cc2ccc3c(c2)SCCO3)cc([C@@H]2O[C@H](CO)[C@@H](F)[C@H](O)[C@H]2O)c2c1CCO2 [Compound 128, (2S,3R,4R,5S,6R)-2-(5-((2,3-dihydrobenzo[b][1,4]oxathiin-6-yl)methyl)-4-methoxy-2,3-dihydrobenzofuran-7-yl)-5-fluoro-6-(hydroxymethyl)-tetrahydro-2H-pyran-3,4-diol]	
		7	176	Cc1cc(O)c([C@@H]2O[C@H](CO)[C@@H](F)[C@H](O)[C@H]2O)cc1Cc1cc2c(s1)C(=O)CCO2 [Compound 129]	
81.6	44.8			Cc1c(Cc2ccc3c(c2)CCCO3)cc([C@@H]2O[C@H](CO)[C@@H](F)[C@H](O)[C@H]2O)c2c1CCO2 [Compound 130]	
		12	231	Cc1c([C@@H]2O[C@H](CO)[C@@H](F)[C@H](O)[C@H]2O)cc(Cc2ccc3c(c2)SCCO3)c2c1CCO2 [Compound 131]	
		23	135	Cc1c(Cc2ccc3c(c2)SCCO3)cc([C@@H]2O[C@H](CO)[C@@H](F)[C@H](O)[C@H]2O)c2c1CCO2 [Compound 132]	
		6	236	OC[C@H]1O[C@@H](c2cc3c(c(Cc4ccc(OCF)cc4)c2)OCC3)[C@H](O)[C@@H](O)[C@@H]1F [Compound 133]	
		12	254	CCc1ccc(Cc2cc([C@@H]3O[C@H](CO)[C@@H](F)[C@H](O)[C@H]3O)cc3c2OCC3)cc1 [Compound 134]	
		8	85	CCc1ccc(Cc2cc([C@@H]3O[C@H](CO)[C@@H](F)[C@H](O)[C@H]3O)c(OC)c3c2OCC3)cc1 [Compound 135]	
46.7	37.5			Cc1cc(N2CCc3sc(Cc4cc([C@@H]5O[C@H](CO)[C@@H](F)[C@H](O)[C@H]5O)ccc4C)cc3C2)c(C)s1 [Compound 138]	
85.8	59.8			COc1c([C@@H]2O[C@H](CO)[C@@H](F)[C@H](O)[C@H]2O)cc(Cc2ccc(OCF)cc2)c2c1CCO2 [Compound 142]	
		6	6	COc1c(Cc2ccc3c(c2)CC3)cc([C@@H]2O[C@H](CO)[C@@H](F)[C@H](O)[C@H]2O)c2c1CCO2 [Compound 152]	
		58	50	OC[C@H]1O[C@@H](c2cc(Cc3ccc4c(c3)OCCO4)c3c(c2)OCC3)[C@H](O)[C@@H](O)[C@@H]1F [Compound 153]	
		2	42	OC[C@H]1O[C@@H](c2cc(Cc3ccc4c(c3)OCCO4)c(Cl)c3c2CCO3)[C@H](O)[C@@H](O)[C@@H]1F [Compound 154]	
		10	86	[2H]C([2H])(c1ccc2c(c1)OCCO2)c1cc([C@@H]2O[C@H](CO)[C@@H](F)[C@H](O)[C@H]2O)ccc1CC [Compound 156]	

SGLT2 %-inhibition (human SGLT2; @ 0.3 μM) [% @ 0.3 μM]	SGLT1 %-inhibition (human SGLT1; @ 0.3 μM) [% @ 0.3 μM]	IC50 (human SGLT2) [nM]	IC50 (human SGLT1) [nM]	Structure (SMILES)	other results
61.9	47.7			[2H]C([2H])(c1ccc2c(c1)OCCO2)c1cc([C@@H]2O[C@H](CO)[C@@H](F)[C@H](O)[C@H]2O)ccc1CC [Compound 157]	
18.0	2.6			CCc1ccc([C@@H]2O[C@H](CO)[C@@H](F)[C@H](O)[C@H]2O)cc1Cc1ccc2c(c1)OC(F)(F)O2 [Compound 158]	
0.0	6.0			CCc1ccc([C@@H]2O[C@H](CO)[C@@H](F)[C@H](O)[C@H]2O)cc1Cc1ccc2c(c1)OC(F)(F)O2 [Compound 159]	
		8	71	[2H]C([2H])([2H])Oc1c([C@@H]2O[C@H](CO)[C@@H](F)[C@H](O)[C@H]2O)cc(Cc2ccc3c(c2)OCCO3)c2c1CCO2 [Compound 160, (2S,3R,4R,5S,6R)-2-[7-(2,3-dihydro-1,4-benzodioxin-6-ylmethyl)-4-(trideuteriomethoxy)-2,3-dihydrobenzofuran-5-yl]-5-fluoro-6-(hydroxymethyl)tetrahydropyran-3,4-diol]	
		7	52	[2H]C([2H])([2H])Oc1c([C@@H]2O[C@H](CO)[C@@H](F)[C@H](O)[C@H]2O)cc(C([2H])([2H])c2ccc3c(c2)OCCO3)c2c1CCO2 [Compound 161, (2S,3R,4R,5S,6R)-2-(7-((2,3-dihydrobenzo[b][1,4]dioxin-6-yl-)methyl-d2)-4-(methoxy-d3)-2,3-dihydrobenzofuran-5-yl)-5-fluoro-6-(hydroxymethyl)tetrahydro-2H-pyran-3,4-diol]	
		8	50	[2H]C([2H])(c1ccc2c(c1)OCCO2)c1cc([C@@H]2O[C@H](CO)[C@@H](F)[C@H](O)[C@H]2O)c(OC)c2c1OCC2 [Compound 163, (2S,3R,4R,5S,6R)-2-[7-[dideuterio(2,3-dihydro-1,4-benzodioxin-6-yl)methyl]-4-methoxy-2,3-dihydrobenzofuran-5-yl]-5-fluoro-6-(hydroxymethyl)tetrahydropyran-3,4-diol]	
		16	56	[2H]C([2H])(c1ccc2c(c1)OCCO2)c1cc([C@@H]2O[C@H](CO)[C@@H](F)[C@H](O)[C@H]2O)c(F)cc1OC [Compound 165]	
		11	245	[2H]C([2H])(c1ccc2c(c1)OCCO2)c1cc([C@@H]2O[C@H](CO)[C@@H](F)[C@H](O)[C@H]2O)ccc1Cl [Compound 166]	
80.1	37.9			[2H]C([2H])(c1ccc2c(c1)OCCO2)c1cc([C@@H]2O[C@H](CO)[C@@H](F)[C@H](O)[C@H]2O)ccc1C [Compound 167]	
72.7	37.2			[2H]C([2H])(c1ccc2c(c1)CCCO2)c1cc([C@@H]2O[C@H](CO)[C@@H](F)[C@H](O)[C@H]2O)ccc1CC [Compound 169]	
69.9	27.1			[2H]C([2H])(c1ccc2c(c1)CCCO2)c1cc([C@@H]2O[C@H](CO)[C@@H](F)[C@H](O)[C@H]2O)ccc1OC [Compound 171]	
		7	45	[2H]C1([2H])Oc2ccc(Cc3cc([C@@H]4O[C@H](CO)[C@@H](F)[C@H](O)[C@H]4O)c(OC)c4c3OCC4)cc2OC1([2H])[2H] [Compound 172, (2S,3R,4R,5S,6R)-5-fluoro-6-(hydroxymethyl)-2-[4-methoxy-7-[(2,2,3,3-tetradeuterio-1,4-benzodioxin-6-yl)methyl]-2,3-dihydrobenzofuran-5-yl]tetrahydropyran-3,4-diol]	
		13	190	[2H]C1([2H])Oc2ccc(Cc3cc([C@@H]4O[C@H](CO)[C@@H](F)[C@H](O)[C@H]4O)ccc3OC)cc2OC1([2H])[2H] [Compound 173]	
		12	87	[2H]C1([2H])Oc2ccc(Cc3cc([C@@H]4O[C@H](CO)[C@@H](F)[C@H](O)[C@H]4O)ccc3CC)cc2OC1([2H])[2H] [Compound 175]	
56.1	68.9			[2H]C([2H])(c1ccc2c(c1)OC([2H])([2H])C([2H])([2H])O2)c1cc([C@@H]2O[C@H](CO)[C@@H](F)[C@H](O)[C@H]2O)ccc1CC [Compound 176]	
